Source: patent US5294716A, “Chemical process for making angiotesin II antagonist compounds” (Imperial Chemical Industries PLC, priority 1991, dated 1994)
Counter-ions that a name gives are not always drawn. Like-named read-outs stand apart in the source and are kept apart here.

How the values were obtained:
[1] = system: angiotensin II-induced pressor responses; assay: Test C: in vivo antagonism of angiotensin II-induced pressor responses in terminally-anaesthetised or conscious rats; conditions: Rattus norvegicus, iv, i.v. administration
From the text: The antagonism of one or more of the physiological actions of AII and, in particular, the antagonism of the interaction of AII with the receptors which mediate its effects on a target tissue, may be assessed using one or more of the following, routine laboratory procedures: Test C: This in vivo test involves using terminally-anaesthetised or conscious rats in which an arterial catheter has been implanted under anaesthesia for the measurement of changes in blood pressure. The AII antagonistic effects of the test compound following oral or parenteral administration, are assessed against angiotensin II-induced pressor responses. To ensure that the effect is specific, the effect of the test compound on vasopressin-induced pressor responses may also be determined in the same preparation.

[2] = molecular target: T1, AII receptors (guinea pig adrenal gland cell surface membranes) (Cavia porcellus, UniProt Q9WV26); assay: Test A: displacement of radiolabelled AII binding to cell surface membrane fraction (guinea pig adrenal gland)
T1 construct: from tissue; host or cells: guinea pig adrenal gland, cell surface membrane fraction
T1 sequence (Q9WV26 1-359): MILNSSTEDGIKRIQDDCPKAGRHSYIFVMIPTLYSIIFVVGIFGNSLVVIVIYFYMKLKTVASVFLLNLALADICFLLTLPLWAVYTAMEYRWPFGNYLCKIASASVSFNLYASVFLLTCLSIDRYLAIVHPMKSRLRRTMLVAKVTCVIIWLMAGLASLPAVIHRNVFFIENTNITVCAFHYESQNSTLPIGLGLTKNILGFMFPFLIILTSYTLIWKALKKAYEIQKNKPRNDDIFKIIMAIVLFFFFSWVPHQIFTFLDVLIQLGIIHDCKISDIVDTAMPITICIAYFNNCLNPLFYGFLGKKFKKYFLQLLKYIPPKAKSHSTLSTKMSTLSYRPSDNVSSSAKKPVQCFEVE
Experimental: The antagonism of one or more of the physiological actions of AII and, in particular, the antagonism of the interaction of AII with the receptors which mediate its effects on a target tissue, may be assessed using one or more of the following, routine laboratory procedures: Test A: This in vitro procedure involves the incubation of the test compound initially at a concentration of 100 micromolar (or less) in a buffered mixture containing fixed concentrations of radiolabelled AII and a cell surface membrane fraction prepared from a suitable angiotensin target tissue. In this test, the source of cell surface membranes is the guinea pig adrenal gland which is well known to respond to AII. Interaction of the radiolabelled AII with its receptors (assessed as radiolabel bound to the particulate membrane fraction following removal of unbound radiolabel by a rapid filtration procedure such as is standard in such studies) is antagonized by compounds which also bind to the membrane receptor sites and the degree of antagonism (observed in the test as displacement of membrane-bound radioactivity) is determined readily by comparing the receptor-bound radioactivity in the presence of the test compound at the specified test concentration with a control value determined in the absence of the test compound. […]

Compound `Cc1cc(OCc2ccc(-c3ccccc3-c3nnn[nH]3)cc2)c2ccccc2n1.Cl` [2-methyl-4-[(2'-(1H-tetrazol-5-yl)biphenyl-4-yl)methoxy]quinoline hydrochloride] has an ED50 [1] of 0.5 mg/kg and an IC50 ([2]; average, read-out: IC50 (concentration for 50% displacement of radiolabelled AII binding), average) of 17 nM.
`Cc1cc(OCc2ccc(-c3ccccc3-c3nn[nH]n3)cc2)c2c(n1)CCCC2` [2-methyl-5,6,7,8-tetrahydro-4-[(2'-(1H-tetrazol-5-yl)methoxy]quinoline hydrochloride] showed an ED50 [1] of 0.28 mg/kg and an IC50 ([2]; read-out: IC50 (concentration for 50% displacement of radiolabelled AII binding)) of 30 nM.
